In patent US10975119B2, “Selective cysteine protease inhibitors and uses thereof” (Genesis Technologies Limited, priority 2011, dated 2021) one finds inhibition and IC50 data, which are given here for 6 compounds.

Holding throughout (format): biochemical
One experiment addresses T1, Caspase-9 (Homo sapiens, UniProt P55211).
T1 construct: purchased BioVision K159-100
T1 sequence (P55211 1-315 limits assumed): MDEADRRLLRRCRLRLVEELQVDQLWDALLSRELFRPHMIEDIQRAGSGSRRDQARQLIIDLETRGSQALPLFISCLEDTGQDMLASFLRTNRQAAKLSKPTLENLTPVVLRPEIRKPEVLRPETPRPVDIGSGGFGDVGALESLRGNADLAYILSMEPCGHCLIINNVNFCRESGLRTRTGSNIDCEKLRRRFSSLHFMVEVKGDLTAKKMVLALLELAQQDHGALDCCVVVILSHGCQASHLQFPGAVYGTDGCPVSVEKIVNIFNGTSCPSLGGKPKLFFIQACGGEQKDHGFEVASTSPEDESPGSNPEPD
T1 sequence (P55211 331-416 limits assumed): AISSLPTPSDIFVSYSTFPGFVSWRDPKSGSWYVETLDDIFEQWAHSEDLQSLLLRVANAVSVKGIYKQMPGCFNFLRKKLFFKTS
Briefly: Caspase-9 inhibitor screening assay (BioVision kit, LEHD-AFC). To be noted: for inhibition at 10 µM: read-out: % Inhibition at 10 uM Casp9; for inhibition at 100 µM: read-out: % Inhibition at 100 uM Casp9. How it is done: (§1) The efficacy of an array of compounds as an inhibitor of the activity of Caspases 1 through 10 were assessed by using the respective Caspase Inhibitor Drug Screening Kits (Caspase-1 Catalog #: K151-100, Caspase-2 Catalog #: K152-100, Caspase-3 Catalog #: K153-100, Caspase-4 Catalog #: K154-100, Caspase-5 Catalog #: K155-100, Caspase-6 Catalog #: K156-100, Caspase-7 Catalog #: K157-100, Caspase-8 Catalog #: K158-100, Caspase-9 Catalog #: K159-100, Caspase-10 Catalog #: K160-100, BioVision) following the instructions of the manufacturer. […] Active caspases cleaved their respective synthetic substrates to release free AFC, which was then quantified by fluorometry.
(§2) Briefly, the compounds were first tested at 2 concentrations (10 uM and 100 uM final) to determine if there is a hit. […] Each condition was tested in duplicates. […] For some samples, a smaller range of concentrations was tested depending on the % Inhibition results at 10 uM and 100 uM. Results were summarized in Tables 2, 3, and 4 herein after. Table 2 represents the IC50 values (uM) of the test compounds as inhibitors of the activity of the various caspases.
(§3) (*) RFU (no inhibitor control)—RFU (compound at a specific concentration)
(§4) RFU (no inhibitor control)

Another experiment addresses T2, Caspase-7 (Homo sapiens, UniProt P55210).
T2 construct: mixing the compounds with the respective active caspases; purchased BioVision K157-100
T2 sequence (P55210 24-198 limits assumed): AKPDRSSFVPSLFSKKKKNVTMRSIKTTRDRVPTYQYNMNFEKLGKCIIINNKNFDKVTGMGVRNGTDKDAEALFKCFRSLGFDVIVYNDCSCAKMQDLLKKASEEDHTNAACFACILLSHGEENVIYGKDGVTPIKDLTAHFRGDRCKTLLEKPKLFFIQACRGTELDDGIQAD
T2 sequence (P55210 207-303 limits assumed): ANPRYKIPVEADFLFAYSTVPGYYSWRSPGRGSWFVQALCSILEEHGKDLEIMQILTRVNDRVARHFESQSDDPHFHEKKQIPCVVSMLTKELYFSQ
Briefly: Caspase-7 inhibitor screening assay (BioVision kit, DEVD-AFC). To be noted: for inhibition at 10 µM: read-out: % Inhibition at 10 uM Casp7; for inhibition at 100 µM: read-out: % Inhibition at 100 uM Casp7. How it is done: as §1, §2, §3, §4

The target in another experiment is T3, Caspase-4 (Homo sapiens, UniProt P49662).
T3 construct: mixing the compounds with the respective active caspases; purchased BioVision K154-100
T3 sequence (P49662 81-270 limits assumed): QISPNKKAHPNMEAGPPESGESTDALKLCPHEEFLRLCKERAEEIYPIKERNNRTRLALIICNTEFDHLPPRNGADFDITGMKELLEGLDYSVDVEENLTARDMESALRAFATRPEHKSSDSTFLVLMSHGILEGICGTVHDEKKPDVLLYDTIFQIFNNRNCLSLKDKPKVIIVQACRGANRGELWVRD
T3 sequence (P49662 290-377 limits assumed): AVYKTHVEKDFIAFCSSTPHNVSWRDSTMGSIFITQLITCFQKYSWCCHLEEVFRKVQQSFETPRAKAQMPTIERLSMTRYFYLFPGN
Put plainly: Caspase-4 inhibitor screening assay (BioVision kit, LEVD-AFC). Particulars: for inhibition at 10 µM: read-out: % Inhibition at 10 uM Casp4; for inhibition at 100 µM: read-out: % Inhibition at 100 uM Casp4; for pIC50: read-out: IC50 Casp4. As for the experimental part:
as §1, §2, §3, §4

Another experiment deals with T4, Caspase-8 (Homo sapiens, UniProt Q14790).
T4 construct: mixing the compounds with the respective active caspases; purchased BioVision K158-100
T4 sequence (Q14790 217-374 limits assumed): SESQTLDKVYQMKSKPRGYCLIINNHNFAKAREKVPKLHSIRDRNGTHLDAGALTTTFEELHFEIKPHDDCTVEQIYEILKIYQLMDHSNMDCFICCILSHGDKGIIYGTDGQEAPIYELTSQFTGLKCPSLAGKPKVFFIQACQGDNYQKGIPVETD
T4 sequence (Q14790 385-479 limits assumed): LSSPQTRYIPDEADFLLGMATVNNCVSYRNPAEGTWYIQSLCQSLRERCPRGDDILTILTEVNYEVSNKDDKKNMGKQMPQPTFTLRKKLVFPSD
Briefly: Caspase-8 inhibitor screening assay (BioVision kit, IETD-AFC). To be noted: for inhibition at 10 µM: read-out: % Inhibition at 10 uM Casp8; for inhibition at 100 µM: read-out: % Inhibition at 100 uM Casp8. How it is done: as §1, §2, §3, §4

The next experiment addresses T5, Caspase-1 (Homo sapiens, UniProt P29466).
T5 construct: mixing the compounds with the respective active caspases; purchased BioVision K151-100
T5 sequence (P29466 120-297 limits assumed): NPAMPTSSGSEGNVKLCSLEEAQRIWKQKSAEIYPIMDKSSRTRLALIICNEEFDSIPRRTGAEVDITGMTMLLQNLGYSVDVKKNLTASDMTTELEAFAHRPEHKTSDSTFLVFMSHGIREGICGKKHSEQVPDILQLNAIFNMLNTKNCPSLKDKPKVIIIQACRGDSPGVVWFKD
T5 sequence (P29466 317-404 limits assumed): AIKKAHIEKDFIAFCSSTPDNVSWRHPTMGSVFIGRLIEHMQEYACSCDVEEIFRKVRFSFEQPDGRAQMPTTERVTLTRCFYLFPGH
Put plainly: Caspase-1 inhibitor screening assay (BioVision kit, YVAD-AFC). To be noted: for inhibition at 10 µM: read-out: % Inhibition at 10 uM Casp1; for inhibition at 100 µM: read-out: % Inhibition at 100 uM Casp1; for pIC50: read-out: IC50 Casp1. As for the experimental part: as §1, §2, §3, §4

For another experiment, the target named is T6, Caspase-2 (Homo sapiens, UniProt P42575).
T6 construct: mixing the compounds with the respective active caspases; purchased BioVision K152-100
T6 sequence (P42575 170-325 limits assumed): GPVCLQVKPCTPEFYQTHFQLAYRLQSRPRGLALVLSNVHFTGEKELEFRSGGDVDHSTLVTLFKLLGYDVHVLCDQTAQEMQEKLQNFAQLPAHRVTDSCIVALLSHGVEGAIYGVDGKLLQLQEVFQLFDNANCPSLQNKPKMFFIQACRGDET
T6 sequence (P42575 334-452 limits assumed): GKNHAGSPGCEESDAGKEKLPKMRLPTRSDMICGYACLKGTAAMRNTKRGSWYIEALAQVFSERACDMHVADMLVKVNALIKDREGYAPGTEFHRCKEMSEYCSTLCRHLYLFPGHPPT
Put plainly: Caspase-2 inhibitor screening assay (BioVision kit, VDVAD-AFC). Particulars: for inhibition at 10 µM: read-out: % Inhibition at 10 uM Casp2; for inhibition at 100 µM: read-out: % Inhibition at 100 uM Casp2; for pIC50: read-out: IC50 Casp2. How it is done:
as §1, §2, §3, §4

pIC50: −log10 of the molar value. Structures can show the parent of a compound that is named as a salt. Where two headings read alike, the source gives them in different places.

For `CCOC(=O)/C=C/[C@@H](N)CC(=O)O` [Compound 44, Asp ethyl vinyl ester tosyl salt], the inhibition at 10 µM at Caspase-9, at Caspase-7, on Caspase-4, on Caspase-8, on Caspase-1 and on Caspase-2 was 0% throughout. In addition, the inhibition at 100 µM amounted to 0% at Caspase-9; 0% on Caspase-7; 0% on Caspase-4; 7% at Caspase-8; 0% at Caspase-1; 3% on Caspase-2. The pIC50 at Caspase-9 (read-out: IC50 Casp9), at Caspase-7 (read-out: IC50 Casp7), at Caspase-4, on Caspase-8 (read-out: IC50 Casp8), at Caspase-1 and on Caspase-2 was less than 4.00 throughout.
In the case of `CCOC(=O)/C=C/[C@H](CC(=O)O)NC(=O)[C@@H](NC(=O)[C@H](CCC(=O)O)NC(=O)[C@@H](NC(=O)OCc1ccccc1)C(C)C)c1ccccc1` [Compound 126, Z-Val-Glu-Phg-Asp-Ethyl Vinyl ester], the pIC50 is less than 4.00 at Caspase-9 (read-out: IC50 Casp9); less than 4.00 on Caspase-7 (read-out: IC50 Casp7); 6.11 on Caspase-4; 7.10 on Caspase-8 (read-out: IC50 Casp8); 7.10 on Caspase-8 (read-out: potency (IC50) against caspase-8); 6.00 on Caspase-1. Further, the pIC50 at Caspase-2 is less than 4.00.
Take `CC(C)(C)[C@H](NC(=O)[C@H](CC(=O)O)NC(=O)OCc1ccccc1)C(=O)N1CCCC1C(=O)N[C@H](/C=C/S(C)(=O)=O)CC(=O)O` (stereo in doubt) [Compound 26, Z-Asp-t-Leu-Pro-Asp-methyl vinyl sulfone]: the inhibition at 10 µM turned out to be 95% at Caspase-9; 99% on Caspase-7; 88% at Caspase-4; 82% at Caspase-8; 69% on Caspase-1; 70% on Caspase-2. The inhibition at 100 µM at Caspase-9 was 100%; on Caspase-7 it was 100%; on Caspase-4, 100%; at Caspase-8, 99%; on Caspase-1 it was 99%; on Caspase-2, 96%. Moreover, the negative logarithm of the IC50 (pIC50) on Caspase-9 (read-out: IC50 Casp9) was 6.18; at Caspase-9 (read-out: potency (IC50) against caspase-9), 6.18; at Caspase-7 (read-out: IC50 Casp7), 6.42; at Caspase-7 (read-out: potency (IC50) against caspase-7), 6.42; on Caspase-4, 5.49; on Caspase-8 (read-out: IC50 Casp8) it was 5.65. Also, the values for the pIC50 at Caspase-1 and on Caspase-2 were 5.37 and 5.36, respectively.
Turning to `CC(C)[C@H](NC(=O)OCc1ccccc1)C(=O)N[C@H](/C=C/S(C)(=O)=O)CC(=O)O` [Compound 3, Z-Val-Asp methyl vinyl sulfone], the inhibition at 10 µM worked out at 0% on Caspase-9; 0% at Caspase-7; 0% on Caspase-4; 0% at Caspase-8; 18% on Caspase-1; 0% on Caspase-2. In addition, the inhibition at 100 µM at Caspase-9 was 17%; on Caspase-7 it was 9%; at Caspase-4, 2%; on Caspase-8, 23%; on Caspase-1, 26%; at Caspase-2, 0%. The pIC50 on Caspase-9 (read-out: IC50 Casp9), on Caspase-7 (read-out: IC50 Casp7), at Caspase-4, on Caspase-8 (read-out: IC50 Casp8), at Caspase-1 and on Caspase-2 was less than 4.00 throughout.
For `CCOC(=O)/C=C/[C@H](CC(=O)O)NC(=O)[C@H]1CCCN1C(=O)[C@@H](NC(=O)c1ccc2ccccc2n1)C(C)(C)C` [Compound 118, 2-Quinoline carbonyl-t-Leu-Pro-Asp Ethyl Vinyl Ester], the inhibition at 10 µM worked out at 53% at Caspase-9; 3% at Caspase-7; 100% on Caspase-4; 36% at Caspase-8; 100% on Caspase-1; 4% on Caspase-2. The inhibition at 100 µM on Caspase-9 was determined as 92%; on Caspase-7 it was 8%; at Caspase-4, 100%; at Caspase-8, 89%; at Caspase-1, 100%; on Caspase-2, 10%. Further, the pIC50 on Caspase-9 (read-out: IC50 Casp9) is 5.05; on Caspase-7 (read-out: IC50 Casp7), less than 4.00; on Caspase-4 it was 6.22; at Caspase-8 (read-out: IC50 Casp8), 4.67; at Caspase-1, 7.52; at Caspase-2, less than 4.00.
Consider `CC(C)(C)[C@@H](NC(=O)[C@H](CC(=O)O)NC(=O)OCc1ccccc1)C(=O)N1CC[C@@H]1C(=O)N[C@H](/C=C/S(C)(=O)=O)CC(=O)O` [Compound 32, Z-Asp-t-Leu-(Azetidine-2-carbonyl)-Asp-methyl vinyl sulfone], for which the inhibition at 10 µM was determined as 91% at Caspase-9; 97% at Caspase-7; 76% at Caspase-4; 69% on Caspase-8; 44% at Caspase-1; 43% at Caspase-2. The inhibition at 100 µM on Caspase-9 turned out to be 100%; at Caspase-7 it was 100%; at Caspase-4, 100%; on Caspase-8, 98%; at Caspase-1 it was 86%; at Caspase-2, 86%. The negative logarithm of the IC50 (pIC50) on Caspase-9 (read-out: IC50 Casp9) was 5.95; at Caspase-7 (read-out: IC50 Casp7), 6.26; at Caspase-4, 5.25; on Caspase-8 (read-out: IC50 Casp8), 5.39; at Caspase-1, 4.88; at Caspase-2, 4.88.

As usually defined, the inhibition is the drop in the measured response relative to a control, in per cent. As a reminder, the pIC50 is −log10 of the IC50, conventionally taken in molar units.
